From patent US20260048130A1, “ALPHA-V BETA-6 (avb6) INTEGRIN LIGANDS FOR EXTRAHEPATIC DELIVERY” (Alnylam Pharmaceuticals, Inc., priority 2022, published 2026)
pEC50: −log10 of the molar value. In the oligonucleotide strings, read from the 5' end, every base follows the letter of its sugar. An asterisk marks phosphorothioate; unmarked linkages are phosphodiester. Other units and linkages are bracketed, terminal groups are in braces. A string of capitals states the bases alone. {Q410} = αvβ6 integrin ligand conjugate, (S,R) stereochemistry, phosphorothioate-linked; {Q411} = αvβ6 integrin ligand conjugate, (R,R) stereochemistry variant; {L352} = αvβ6 integrin ligand conjugate, (S,R) stereochemistry; {L353} = αvβ6 integrin ligand conjugate, (S,S) stereochemistry; {L373Z511} = αvβ6 integrin ligand conjugate variant; {L373Z512} = αvβ6 integrin ligand conjugate variant; {L373Z513} = αvβ6 integrin ligand conjugate variant; {L354} = αvβ6 integrin ligand conjugate; {VP} = (E)-vinylphosphonate; m = 2'-O-methyl; f = 2'-fluoro

Assays:
[1] = test system: Sod1 mRNA; assay: Sod1 mRNA knockdown in mouse lung after intranasal administration (RT-qPCR); format: in vivo; settings: for % Sod1 Remaining: Day 10, relative to PBS
Method: Heart and quadricep powder were homogenized and lysed in 750 μL of QIAzol Lysis Reagent for 5 minutes×2 at 25 Hz using a TissueLyser. Chloroform ([…]) was thoroughly mixed with each sample and lysates were centrifugated at full speed for 15 minutes at 4° C. Total RNA was isolated from the supernatant using the RNeasy® 96 Universal Tissue Kit. Resulting RNA (1500 ng) was used for cDNA synthesis using the Applied Biosystems™ High-Capacity cDNA Reverse Transcription Kit with RNase Inhibitor. For qPCR reactions, 2 uL cDNA was used per 10 μL reaction. RT-qPCR was performed using the LightCycler® 480 Probes Master in the LightCycler® 480 Instrument system using gene specific TaqMan assays for each target mouse-specific Sod1 (ThermoFisher Scientific, Mm01344233_g1) and Gapdh (ThermoFisher Scientific, Mm99999915_g1) were used for RT-qPCR analysis. Each sample was analyzed in duplicate by RT-qPCR. Data were analyzed using the ΔΔCt method normalizing to control animals treated with 1×PBS alone.
Table 5 provides the study design used to evaluate the in vivo pharmacodynamic and/or pharmacologic activity of αvβ6 integrin targeting siRNA conjugates in mouse lung following intranasal administration.
Female mice were intranasally administered either a single 1 mg/kg or 10 mg/kg dose of the dsRNA agents conjugated to αvβ6 and at Day 10 post-dose animals were sacrificed and lung, heart, liver, and kidney tissues were collected. The level of Sod1 mRNA in the samples was determined by R^T-qPCR as described above.

[2] = biological target: T1, recombinant human αvβ6 (Homo sapiens, UniProt P06756+P18564, DEL708-788); assay: ELISA displacement assay (αvβ6 binding to LAP/TGF1b); settings: recombinant human αvβ6 vs coated human LAP/TGF1b
T1 construct: purchased R&D Systems 3817AV050
Method: ELISA plates were coated with 0.6 ug/mL recombinant human LAP/TGF1b (R&D Systems 246LP025) in carbonate buffer (pH 9.6) overnight at 4 C. Plates were washed with PBST and blocked for 1 hour at room temperature with assay buffer (20 mM Tris-HCl, 150 mM NaCl, 2 mM CaCl2, 2 mM MgCl2, 2 mM MnCl2, 0.5% BSA, pH 7.4). Serial dilutions of competitor compound in assay buffer were added to plate, as well as 1.0 ug/mL of purified recombinant human αvβ6 (R&D Systems 3817AV050), and samples were incubated for 1 hour at room temperature. Plates were washed with PBS-T, then incubated with 2.5 ug/mL of anti-integrin av primary antibody (Sigma MAB1978) for 1 hour at room temperature. Plates were washed with PBS-T, then incubated with 2.0 ug/mL of HRP-conjugated secondary antibody for 1 hour at room temperature. Samples were incubated with TMB substrate (Thermo 34024) for 15 minutes, reaction was quenched with 3 M sulfuric acid, and absorbance was measured at 450 nm. Percent binding inhibition was calculated by normalizing to a maximum value obtained from no-competitor samples and a minimum value obtained from no-competitor-no-integrin samples. EC50 values are reported in the following ranges: “A” EC50>100 nM; “B” EC50 10-100 nM; “C” EC50<10 nM.

T1 sequence (P06756 31-992 limits assumed, stated change not applied): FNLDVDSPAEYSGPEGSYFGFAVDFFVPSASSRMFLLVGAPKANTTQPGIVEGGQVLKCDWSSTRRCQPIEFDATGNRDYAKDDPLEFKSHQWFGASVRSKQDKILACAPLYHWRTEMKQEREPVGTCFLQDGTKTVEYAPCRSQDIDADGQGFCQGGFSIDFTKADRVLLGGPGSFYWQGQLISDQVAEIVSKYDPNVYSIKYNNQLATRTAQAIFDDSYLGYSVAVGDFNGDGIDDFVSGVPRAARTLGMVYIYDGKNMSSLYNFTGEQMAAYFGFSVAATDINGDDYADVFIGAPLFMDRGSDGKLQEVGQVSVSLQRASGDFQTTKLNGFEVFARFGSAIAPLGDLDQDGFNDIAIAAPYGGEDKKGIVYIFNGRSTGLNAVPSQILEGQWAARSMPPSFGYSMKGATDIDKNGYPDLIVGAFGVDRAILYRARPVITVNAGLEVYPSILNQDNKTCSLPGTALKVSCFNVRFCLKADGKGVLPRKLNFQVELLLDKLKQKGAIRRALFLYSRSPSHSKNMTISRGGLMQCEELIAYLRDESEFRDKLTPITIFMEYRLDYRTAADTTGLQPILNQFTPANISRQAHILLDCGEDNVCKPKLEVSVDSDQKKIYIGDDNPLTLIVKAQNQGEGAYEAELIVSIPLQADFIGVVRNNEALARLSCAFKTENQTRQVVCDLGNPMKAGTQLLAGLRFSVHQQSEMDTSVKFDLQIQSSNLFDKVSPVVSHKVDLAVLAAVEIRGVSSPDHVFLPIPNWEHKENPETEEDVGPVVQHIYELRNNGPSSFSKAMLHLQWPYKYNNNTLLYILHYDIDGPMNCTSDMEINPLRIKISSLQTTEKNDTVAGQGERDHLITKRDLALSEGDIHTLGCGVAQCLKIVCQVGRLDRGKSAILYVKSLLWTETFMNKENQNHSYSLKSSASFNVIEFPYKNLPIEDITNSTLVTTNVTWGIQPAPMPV
T1 sequence (P18564 22-707 limits assumed, stated change not applied): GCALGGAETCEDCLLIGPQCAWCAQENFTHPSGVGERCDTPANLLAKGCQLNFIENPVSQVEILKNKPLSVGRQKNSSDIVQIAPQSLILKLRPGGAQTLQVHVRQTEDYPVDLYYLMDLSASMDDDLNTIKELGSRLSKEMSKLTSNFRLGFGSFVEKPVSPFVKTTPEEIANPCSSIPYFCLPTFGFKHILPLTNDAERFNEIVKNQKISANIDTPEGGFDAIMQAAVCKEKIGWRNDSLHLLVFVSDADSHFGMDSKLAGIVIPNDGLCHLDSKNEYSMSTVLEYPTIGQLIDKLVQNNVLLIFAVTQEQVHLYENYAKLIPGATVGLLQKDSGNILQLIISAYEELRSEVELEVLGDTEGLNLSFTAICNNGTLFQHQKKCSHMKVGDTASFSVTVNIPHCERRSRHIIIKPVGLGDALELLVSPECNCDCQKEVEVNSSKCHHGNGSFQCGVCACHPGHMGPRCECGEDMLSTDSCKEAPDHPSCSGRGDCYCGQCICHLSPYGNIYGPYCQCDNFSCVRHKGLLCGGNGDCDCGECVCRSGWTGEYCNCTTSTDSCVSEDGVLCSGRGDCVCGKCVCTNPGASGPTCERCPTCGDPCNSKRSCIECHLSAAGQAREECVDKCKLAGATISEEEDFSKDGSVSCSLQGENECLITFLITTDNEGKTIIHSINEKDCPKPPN

Substance	% Sod1 Remaining ([1]; single intranasal 1 mg/kg) [%]	% Sod1 Remaining ([1]; single intranasal 10 mg/kg) [%]	Sod1 knockdown in mouse lung, comparison between conjugate designs ([1]; intranasal, matched pairs by avidity or stereochemistry)	pEC50 [2]
AD-1481899.1: "3′,5′ is better than the triple (AD-1481899 vs AD-1481901 as matched pair of (S,R) stereochemistry)" (sense mC*mA*mUmUmUmUfAmAfUfCfCmUmCmAmCmUmCmUmAmA*mA*{L354}; antisense {VP}-mU*fU*mUmAmGfAmGfUfGmAmGmGmAfUmUfAmAmAmAmUmG*mA*mG; siRNA)	60.0	52.4	–	–
AD-1481901.1: "3′,5′ is better than the triple (AD-1481899 vs AD-1481901 as matched pair of (S,R) stereochemistry)" (sense {Q410}*mC*mAmUmUmUmUfAmAfUfCfCmUmCmAmCmUmCmUmAmA*mA*{L352}; antisense {VP}-mU*fU*mUmAmGfAmGfUfGmAmGmGmAfUmUfAmAmAmAmUmG*mA*mG; siRNA)	47.7	35.9	–	–
AD-1481901: "inhibition of Sod1 mRNA expression in mouse quadriceps, heart, liver, and lung 21 days after a single 2 mg/kg intravenous dose" (sense {Q410}*mC*mAmUmUmUmUfAmAfUfCfCmUmCmAmCmUmCmUmAmA*mA*{L352}; antisense {VP}-mU*fU*mUmAmGfAmGfUfGmAmGmGmAfUmUfAmAmAmAmUmG*mA*mG)	–	–	better than the triple	–
AD-1481902.1: "inhibition of Sod1 mRNA expression in mouse quadriceps, heart, liver, and lung 21 days after a single 2 mg/kg intravenous dose" (sense {Q411}*mC*mAmUmUmUmUfAmAfUfCfCmUmCmAmCmUmCmUmAmA*mA*{L353}; antisense {VP}-mU*fU*mUmAmGfAmGfUfGmAmGmGmAfUmUfAmAmAmAmUmG*mA*mG)	77.2	51.2	–	–
AD-1481904.1: dsRNA agent targeting Sod1 conjugated to αvβ6 ligand: "3′-monos (AD-1481903 (S,R) vs AD-1481904 (S,S))" (sense mC*mA*mUmUmUmUfAmAfUfCfCmUmCmAmCmUmCmUmAmA*mA*{L353}; antisense {VP}-mU*fU*mUmAmGfAmGfUfGmAmGmGmAfUmUfAmAmAmAmUmG*mA*mG)	59.2	49.8	–	–
AD-2032892: "inhibition of Sod1 mRNA expression in mouse gastrocnemius and quadriceps 21 days after a single 2 mg/kg intravenous dose of AD-2032892" (sense mU*mU*mGmGmGmCfAmAfAfGfGmUmGmGmAmAmAmUmGmA*mA*{L354}; antisense {VP}-mU*fU*mCmAmUfUmUfCfCmAmCmCmUfUmUfGmCmCmCmAmA*mG*mU)	–	–	–	> 8.00
AD-2639645 (sense mU*mU*mGmGmGmCfAmAfAfGfGmUmGmGmAmAmAmUmGmA*mA*{L373Z511}; antisense {VP}-mU*fU*mCmAmUfUmUfCfCmAmCmCmUfUmUfGmCmCmCmAmA*mG*mU; siRNA)	–	–	–	< 7.00
AD-2639646 (sense mU*mU*mGmGmGmCfAmAfAfGfGmUmGmGmAmAmAmUmGmA*mA*{L373Z512}; antisense {VP}-mU*fU*mCmAmUfUmUfCfCmAmCmCmUfUmUfGmCmCmCmAmA*mG*mU; siRNA)	–	–	–	7.00 to 8.00
AD-2639647 (sense mU*mU*mGmGmGmCfAmAfAfGfGmUmGmGmAmAmAmUmGmA*mA*{L373Z513}; antisense {VP}-mU*fU*mCmAmUfUmUfCfCmAmCmCmUfUmUfGmCmCmCmAmA*mG*mU; siRNA)	–	–	–	> 8.00
